# Laboratory results: patent publication US20250250245A1, “TRIMETAZIDINE SALTS” (LES LABORATOIRES SERVIER, priority 2021, published 2025)
# Where a name gives a salt, the structure may show the parent alone.
# Experiment: Trimetazidine nitrosamine formation in aqueous sodium nitrite solution (LC/MS dosage)
# Type: physicochemical
# Conditions: 6 mg/mL in trimetazidine equivalent (low solubility), 40° C. for 22 hours
# Experimental: In order to model the formation of trimetazidine nitrosamine during the formulation process, an aqueous solution of sodium nitrite was added to the trimetazidine salt. The sodium nitrite mimics the presence of nitrites in water and/or excipients during a drug product manufacturing process.
# The trimetazidine salt, in an amount corresponding to 600 mg trimetazidine, was placed in 2 mL volumetric flask. […]
# The solution was stirred at 40° C. for 22 hours. The trimetazidine nitrosamine dosage was performed by LC/MS.
row,Compound,Trimetazidine nitrosamine content
1,COc1ccc(CN2CCNCC2)c(OC)c1OC.O=C(O)C(=O)O.O=C(O)C(=O)O [Comparative Example D],83.1 ppm

# Same assay, conditions: 30 mg/mL in trimetazidine equivalent (low solubility), 40° C. for 22 hours
row,Compound,Trimetazidine nitrosamine content
1,COc1ccc(CN2CCNCC2)c(OC)c1OC.O=C(O)C(=O)O [Comparative Example C],104.0 ppm

# Same assay, conditions: 300 mg/mL in trimetazidine equivalent, stirred at 40° C. for 22 hours
row,Compound,Trimetazidine nitrosamine content
1,"COc1ccc(CN2CCNCC2)c(OC)c1OC [Comparative Example A, Trimetazidine dihydrochloride]",126.0 ppm
2,COc1ccc(CN2CCNCC2)c(OC)c1OC.Cl.Cl [Comparative Example E],22.0 ppm
3,COc1ccc(CN2CCNCC2)c(OC)c1OC.O=C(O)C=CC(=O)O [Comparative Example F],121.2 ppm
4,COc1ccc(CN2CCNCC2)c(OC)c1OC.O=C(O)C=CC(=O)O [Comparative Example G],31.9 ppm
5,"COc1ccc(CN2CCNCC2)c(OC)c1OC.COc1ccc(CN2CCNCC2)c(OC)c1OC.O=C(O)CCCCC(=O)O [Example 1, Trimetazidine Hemiadipate]",0.7 ppm
6,Trimetazidine Hemifumarate [Example 5],0.1 ppm
7,Trimetazidine Hemimalate [Example 3],0.7 ppm
8,Trimetazidine Hemiphosphate [Example 7],0.6 ppm
9,Trimetazidine Hemisuccinate [Example 2],0.5 ppm
10,Trimetazidine Hemisulfate [Example 4],0.6 ppm
11,Trimetazidine Hemitartrate [Example 6],0.6 ppm
12,trimetazidine hemioxalate [Comparative Example B],1.1 ppm

# Experiment: Solubility of the trimetazidine salts in the aqueous test solution
# Type: physicochemical
# Conditions: 300 mg/mL in trimetazidine equivalent not used
row,Compound,Solubility
1,COc1ccc(CN2CCNCC2)c(OC)c1OC.O=C(O)C(=O)O [Comparative Example C],low solubilities
2,COc1ccc(CN2CCNCC2)c(OC)c1OC.O=C(O)C(=O)O.O=C(O)C(=O)O [Comparative Example D],low solubilities
